Article PMC4854315, “Discovery of a novel allosteric inhibitor-binding site in ERK5: comparison with the canonical kinase hinge ATP-binding site” (Acta Crystallographica. Section D, Structural Biology, 2016)

Key:
Experiment in all cases: Z'-LYTE kinase panel
Format in all cases: biochemical
STK3 (MST2) = molecular target: T1, STK3 (MST2) (Homo sapiens, UniProt Q13188)
T1 construct: purchased ThermoFisher (SelectScreen, Z'-LYTE)
T1 sequence (Q13188 1-491): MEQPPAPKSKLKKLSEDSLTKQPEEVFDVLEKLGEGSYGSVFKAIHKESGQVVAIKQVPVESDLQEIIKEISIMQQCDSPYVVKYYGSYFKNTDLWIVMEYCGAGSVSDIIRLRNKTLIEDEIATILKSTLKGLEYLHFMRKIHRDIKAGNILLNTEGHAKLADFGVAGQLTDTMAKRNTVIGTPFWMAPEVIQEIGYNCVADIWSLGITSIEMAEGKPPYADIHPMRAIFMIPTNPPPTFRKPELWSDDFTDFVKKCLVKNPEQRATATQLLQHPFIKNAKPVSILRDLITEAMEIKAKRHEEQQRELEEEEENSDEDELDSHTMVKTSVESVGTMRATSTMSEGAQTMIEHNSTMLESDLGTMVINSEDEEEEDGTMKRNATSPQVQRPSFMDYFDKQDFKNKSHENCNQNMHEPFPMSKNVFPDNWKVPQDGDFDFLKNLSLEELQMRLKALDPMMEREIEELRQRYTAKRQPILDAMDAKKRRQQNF
Outline: (§1)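 Each compound was added at 10 µM, kinase activity was then measured via the standard Z′-LYTE assay, and percentage inhibition was calculated; 225 kinases were covered.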

AURKC (Aurora C) = molecular target: T2, AURKC (Aurora C) (Homo sapiens, UniProt Q9UQB9)
T2 construct: purchased ThermoFisher (SelectScreen, Z'-LYTE)
T2 sequence (Q9UQB9 1-309): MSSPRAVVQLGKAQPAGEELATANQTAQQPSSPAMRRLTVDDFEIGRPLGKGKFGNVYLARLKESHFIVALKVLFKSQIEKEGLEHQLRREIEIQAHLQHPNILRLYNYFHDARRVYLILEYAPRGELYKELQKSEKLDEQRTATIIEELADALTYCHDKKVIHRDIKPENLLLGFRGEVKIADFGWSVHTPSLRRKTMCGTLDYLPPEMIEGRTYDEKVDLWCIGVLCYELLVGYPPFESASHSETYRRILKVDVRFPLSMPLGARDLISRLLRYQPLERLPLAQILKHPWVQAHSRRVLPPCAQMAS
Outline: as §1

SGK2 = molecular target: T3, SGK2 (Homo sapiens, UniProt Q9HBY8)
T3 construct: purchased ThermoFisher (SelectScreen, Z'-LYTE)
T3 sequence (Q9HBY8 1-367): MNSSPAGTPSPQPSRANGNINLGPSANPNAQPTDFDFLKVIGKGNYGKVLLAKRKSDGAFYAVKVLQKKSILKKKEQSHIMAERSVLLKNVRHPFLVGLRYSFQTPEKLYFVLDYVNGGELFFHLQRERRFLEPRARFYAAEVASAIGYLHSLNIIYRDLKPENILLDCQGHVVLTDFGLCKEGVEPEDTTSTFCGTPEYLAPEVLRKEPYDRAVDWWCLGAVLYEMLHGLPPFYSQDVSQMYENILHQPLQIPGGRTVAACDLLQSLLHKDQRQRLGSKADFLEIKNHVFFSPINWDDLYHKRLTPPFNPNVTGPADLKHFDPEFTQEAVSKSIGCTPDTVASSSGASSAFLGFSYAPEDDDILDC
Outline: as §1

SRMS (Srm) = molecular target: T4, SRMS (Srm) (Homo sapiens, UniProt Q9H3Y6)
T4 construct: purchased ThermoFisher (SelectScreen, Z'-LYTE)
T4 sequence (Q9H3Y6 whole entry): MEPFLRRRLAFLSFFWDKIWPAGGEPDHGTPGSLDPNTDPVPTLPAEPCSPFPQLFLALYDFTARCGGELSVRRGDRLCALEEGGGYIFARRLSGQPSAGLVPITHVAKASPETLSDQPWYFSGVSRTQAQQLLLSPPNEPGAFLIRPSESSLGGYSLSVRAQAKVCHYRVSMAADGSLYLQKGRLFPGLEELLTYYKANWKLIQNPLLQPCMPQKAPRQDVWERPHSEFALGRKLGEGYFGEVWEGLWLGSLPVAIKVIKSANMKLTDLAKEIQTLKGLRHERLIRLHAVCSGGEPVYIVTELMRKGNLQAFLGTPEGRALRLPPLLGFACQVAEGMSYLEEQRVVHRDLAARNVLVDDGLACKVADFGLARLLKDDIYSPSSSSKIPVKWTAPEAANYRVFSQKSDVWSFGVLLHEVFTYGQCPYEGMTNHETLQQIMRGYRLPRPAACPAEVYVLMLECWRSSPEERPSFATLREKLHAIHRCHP
Outline: as §1

CDK5/p35 = molecular target: T5, CDK5/p35 (Homo sapiens, UniProt Q00535)
T5 construct: purchased ThermoFisher (SelectScreen, Z'-LYTE)
T5 sequence (Q00535 whole entry): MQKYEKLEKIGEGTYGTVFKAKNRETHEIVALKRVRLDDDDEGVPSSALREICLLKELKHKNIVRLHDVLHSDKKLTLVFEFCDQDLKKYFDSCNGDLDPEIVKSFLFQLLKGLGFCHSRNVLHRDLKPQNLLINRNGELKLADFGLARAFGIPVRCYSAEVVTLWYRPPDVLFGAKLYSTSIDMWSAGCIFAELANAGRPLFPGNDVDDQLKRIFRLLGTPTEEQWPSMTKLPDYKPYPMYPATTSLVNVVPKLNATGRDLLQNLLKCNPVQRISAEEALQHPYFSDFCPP
T5 sequence (Q15078 whole entry partner): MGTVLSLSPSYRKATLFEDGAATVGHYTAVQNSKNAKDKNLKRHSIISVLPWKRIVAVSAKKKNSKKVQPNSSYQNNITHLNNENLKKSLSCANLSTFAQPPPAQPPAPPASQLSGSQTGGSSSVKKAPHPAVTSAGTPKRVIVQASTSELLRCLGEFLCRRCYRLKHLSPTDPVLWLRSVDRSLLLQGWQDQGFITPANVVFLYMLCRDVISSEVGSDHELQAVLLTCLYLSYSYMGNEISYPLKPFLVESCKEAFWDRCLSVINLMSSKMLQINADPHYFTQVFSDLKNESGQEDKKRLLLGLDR
Outline: as §1

PDGFRA (PDGFR alpha) = molecular target: T6, PDGFRA (PDGFR alpha) (Homo sapiens, UniProt P16234)
T6 construct: purchased ThermoFisher (SelectScreen, Z'-LYTE)
T6 sequence (P16234 24-1089): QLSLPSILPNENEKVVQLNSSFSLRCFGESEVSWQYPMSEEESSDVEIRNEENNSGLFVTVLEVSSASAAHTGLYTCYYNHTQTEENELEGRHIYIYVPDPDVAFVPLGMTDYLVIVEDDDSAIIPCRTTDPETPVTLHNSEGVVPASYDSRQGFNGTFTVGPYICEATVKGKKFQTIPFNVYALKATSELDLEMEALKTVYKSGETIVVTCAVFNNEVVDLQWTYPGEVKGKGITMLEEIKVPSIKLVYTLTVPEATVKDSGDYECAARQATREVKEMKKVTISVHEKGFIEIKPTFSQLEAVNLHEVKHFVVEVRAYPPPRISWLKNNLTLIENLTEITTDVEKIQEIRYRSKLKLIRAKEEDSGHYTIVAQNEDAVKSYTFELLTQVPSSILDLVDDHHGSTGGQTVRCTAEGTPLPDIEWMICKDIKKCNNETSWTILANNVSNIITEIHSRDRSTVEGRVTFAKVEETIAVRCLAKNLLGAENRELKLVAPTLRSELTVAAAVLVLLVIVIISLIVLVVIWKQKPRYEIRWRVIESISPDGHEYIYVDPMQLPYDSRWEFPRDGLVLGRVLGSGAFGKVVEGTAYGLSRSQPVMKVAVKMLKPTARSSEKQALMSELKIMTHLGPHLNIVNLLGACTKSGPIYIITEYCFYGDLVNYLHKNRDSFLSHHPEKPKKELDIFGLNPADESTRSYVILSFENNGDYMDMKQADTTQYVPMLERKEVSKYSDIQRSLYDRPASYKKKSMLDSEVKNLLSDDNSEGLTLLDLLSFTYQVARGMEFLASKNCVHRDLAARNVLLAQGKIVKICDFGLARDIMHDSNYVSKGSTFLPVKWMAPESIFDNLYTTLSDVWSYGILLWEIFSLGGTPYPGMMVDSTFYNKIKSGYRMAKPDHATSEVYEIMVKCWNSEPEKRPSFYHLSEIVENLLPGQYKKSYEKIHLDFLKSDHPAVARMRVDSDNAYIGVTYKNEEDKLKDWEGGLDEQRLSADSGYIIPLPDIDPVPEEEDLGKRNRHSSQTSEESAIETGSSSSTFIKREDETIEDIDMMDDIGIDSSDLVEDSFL
Outline: as §1

PRKCN (PKD3) = molecular target: T7, PRKCN (PKD3) (Homo sapiens, UniProt O94806)
T7 construct: purchased ThermoFisher (SelectScreen, Z'-LYTE)
T7 sequence (O94806 1-890): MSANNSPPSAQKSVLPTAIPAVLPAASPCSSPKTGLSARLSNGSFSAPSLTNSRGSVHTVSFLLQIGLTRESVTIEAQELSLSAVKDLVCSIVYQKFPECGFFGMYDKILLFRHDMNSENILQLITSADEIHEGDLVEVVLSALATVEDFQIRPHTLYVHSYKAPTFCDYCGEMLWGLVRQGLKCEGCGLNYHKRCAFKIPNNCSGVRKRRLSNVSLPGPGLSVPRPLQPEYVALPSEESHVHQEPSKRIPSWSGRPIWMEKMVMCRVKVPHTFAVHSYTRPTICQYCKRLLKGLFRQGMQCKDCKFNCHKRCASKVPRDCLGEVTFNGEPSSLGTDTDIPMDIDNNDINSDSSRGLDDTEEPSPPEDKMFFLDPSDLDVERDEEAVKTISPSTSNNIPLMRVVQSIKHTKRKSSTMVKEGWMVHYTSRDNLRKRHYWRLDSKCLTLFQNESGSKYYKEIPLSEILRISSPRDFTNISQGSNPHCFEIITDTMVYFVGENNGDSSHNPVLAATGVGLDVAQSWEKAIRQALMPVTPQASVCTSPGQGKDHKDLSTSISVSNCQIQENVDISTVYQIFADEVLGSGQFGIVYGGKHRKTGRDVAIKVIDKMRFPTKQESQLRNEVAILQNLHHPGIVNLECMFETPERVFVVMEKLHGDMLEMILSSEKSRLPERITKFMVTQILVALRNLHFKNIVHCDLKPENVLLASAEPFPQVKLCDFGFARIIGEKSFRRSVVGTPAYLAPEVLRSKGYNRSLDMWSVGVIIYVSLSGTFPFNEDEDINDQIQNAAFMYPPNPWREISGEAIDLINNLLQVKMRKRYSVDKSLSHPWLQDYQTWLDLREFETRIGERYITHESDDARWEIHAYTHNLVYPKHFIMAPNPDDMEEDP
Outline: as §1

GSK3B (GSK3 beta) = molecular target: T8, GSK3B (GSK3 beta) (Homo sapiens, UniProt P49841)
T8 construct: purchased ThermoFisher (SelectScreen, Z'-LYTE)
T8 sequence (P49841 whole entry): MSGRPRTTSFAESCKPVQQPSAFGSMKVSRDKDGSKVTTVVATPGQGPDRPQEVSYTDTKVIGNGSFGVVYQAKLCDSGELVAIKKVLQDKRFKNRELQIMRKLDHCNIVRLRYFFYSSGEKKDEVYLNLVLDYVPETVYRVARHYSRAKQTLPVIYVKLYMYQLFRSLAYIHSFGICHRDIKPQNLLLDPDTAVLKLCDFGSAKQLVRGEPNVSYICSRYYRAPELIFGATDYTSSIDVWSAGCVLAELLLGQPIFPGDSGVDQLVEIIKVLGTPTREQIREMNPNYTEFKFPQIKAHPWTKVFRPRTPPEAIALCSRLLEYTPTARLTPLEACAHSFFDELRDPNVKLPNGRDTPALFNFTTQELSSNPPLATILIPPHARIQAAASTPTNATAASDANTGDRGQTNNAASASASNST
Outline: as §1

AMPK A2/B1/G1 = molecular target: T9, AMPK A2/B1/G1 (Homo sapiens, UniProt P54646)
T9 construct: purchased ThermoFisher (SelectScreen, Z'-LYTE)
T9 sequence (P54646 whole entry): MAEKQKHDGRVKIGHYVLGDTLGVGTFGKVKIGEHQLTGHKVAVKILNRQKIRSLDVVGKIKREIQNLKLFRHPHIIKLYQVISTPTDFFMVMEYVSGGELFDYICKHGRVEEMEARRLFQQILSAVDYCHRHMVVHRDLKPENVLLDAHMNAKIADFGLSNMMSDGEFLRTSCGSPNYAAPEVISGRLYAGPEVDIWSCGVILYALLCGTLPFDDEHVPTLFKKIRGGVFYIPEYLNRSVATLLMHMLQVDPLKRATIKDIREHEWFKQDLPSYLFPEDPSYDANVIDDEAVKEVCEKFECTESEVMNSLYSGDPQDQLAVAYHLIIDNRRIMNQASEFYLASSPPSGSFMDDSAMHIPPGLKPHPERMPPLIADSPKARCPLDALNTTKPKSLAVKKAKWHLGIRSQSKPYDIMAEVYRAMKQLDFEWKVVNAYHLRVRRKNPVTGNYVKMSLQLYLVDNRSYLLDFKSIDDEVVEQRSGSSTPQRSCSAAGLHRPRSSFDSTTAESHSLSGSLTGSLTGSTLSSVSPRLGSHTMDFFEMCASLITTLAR
T9 sequence (Q9Y478 whole entry partner): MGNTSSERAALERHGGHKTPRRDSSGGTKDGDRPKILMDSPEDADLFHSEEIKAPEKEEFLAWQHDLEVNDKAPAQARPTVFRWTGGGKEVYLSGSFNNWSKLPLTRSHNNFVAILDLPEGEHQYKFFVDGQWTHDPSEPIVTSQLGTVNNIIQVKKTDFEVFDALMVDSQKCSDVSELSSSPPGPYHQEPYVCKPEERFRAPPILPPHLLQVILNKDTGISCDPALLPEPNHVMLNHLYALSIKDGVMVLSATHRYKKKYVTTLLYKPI
T9 sequence (P54619 whole entry partner): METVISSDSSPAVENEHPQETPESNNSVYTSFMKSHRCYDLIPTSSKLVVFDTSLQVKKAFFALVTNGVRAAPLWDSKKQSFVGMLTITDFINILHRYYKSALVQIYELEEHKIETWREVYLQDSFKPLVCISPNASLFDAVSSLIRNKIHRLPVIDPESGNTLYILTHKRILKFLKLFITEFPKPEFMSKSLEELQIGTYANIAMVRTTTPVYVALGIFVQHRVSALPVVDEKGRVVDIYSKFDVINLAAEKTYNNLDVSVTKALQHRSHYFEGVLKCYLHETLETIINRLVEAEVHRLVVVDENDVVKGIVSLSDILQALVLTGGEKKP
Outline: as §1

DYRK1B = molecular target: T10, DYRK1B (Homo sapiens, UniProt Q9Y463)
T10 construct: purchased ThermoFisher (SelectScreen, Z'-LYTE)
T10 sequence (Q9Y463 whole entry): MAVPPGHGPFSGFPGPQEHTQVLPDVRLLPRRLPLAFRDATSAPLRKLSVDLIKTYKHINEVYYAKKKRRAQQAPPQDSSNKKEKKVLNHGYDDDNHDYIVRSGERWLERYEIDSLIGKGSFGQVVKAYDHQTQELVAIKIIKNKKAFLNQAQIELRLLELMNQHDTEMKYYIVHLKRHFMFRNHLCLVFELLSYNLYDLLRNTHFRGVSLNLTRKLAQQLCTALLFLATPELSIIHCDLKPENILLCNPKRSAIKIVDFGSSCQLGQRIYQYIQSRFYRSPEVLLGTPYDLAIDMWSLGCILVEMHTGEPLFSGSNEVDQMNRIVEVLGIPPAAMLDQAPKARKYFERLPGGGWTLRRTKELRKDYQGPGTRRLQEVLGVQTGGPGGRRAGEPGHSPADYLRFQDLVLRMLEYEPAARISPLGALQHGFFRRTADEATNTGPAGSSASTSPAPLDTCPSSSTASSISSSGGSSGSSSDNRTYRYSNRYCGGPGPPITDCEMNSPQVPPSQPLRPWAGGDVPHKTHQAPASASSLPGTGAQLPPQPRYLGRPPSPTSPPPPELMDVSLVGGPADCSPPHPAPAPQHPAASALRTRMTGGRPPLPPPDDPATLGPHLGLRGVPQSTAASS
Outline: as §1

PLK1 = molecular target: T11, PLK1 (Homo sapiens, UniProt P53350)
T11 construct: purchased ThermoFisher (SelectScreen, Z'-LYTE)
T11 sequence (P53350 whole entry): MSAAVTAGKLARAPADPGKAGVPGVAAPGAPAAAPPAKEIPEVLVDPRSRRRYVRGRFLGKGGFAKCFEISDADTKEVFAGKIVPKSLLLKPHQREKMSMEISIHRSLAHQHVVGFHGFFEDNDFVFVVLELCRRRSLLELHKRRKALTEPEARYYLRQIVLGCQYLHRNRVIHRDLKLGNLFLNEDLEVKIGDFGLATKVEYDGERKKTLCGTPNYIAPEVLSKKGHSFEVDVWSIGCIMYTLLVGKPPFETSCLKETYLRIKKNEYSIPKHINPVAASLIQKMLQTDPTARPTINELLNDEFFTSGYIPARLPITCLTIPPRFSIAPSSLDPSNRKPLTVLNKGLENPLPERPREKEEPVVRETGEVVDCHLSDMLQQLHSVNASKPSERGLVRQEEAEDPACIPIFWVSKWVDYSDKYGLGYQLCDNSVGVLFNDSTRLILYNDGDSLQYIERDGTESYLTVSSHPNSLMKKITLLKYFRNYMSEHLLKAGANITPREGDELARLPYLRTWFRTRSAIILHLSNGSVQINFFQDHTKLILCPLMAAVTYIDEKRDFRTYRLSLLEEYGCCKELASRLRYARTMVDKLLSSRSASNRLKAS
Outline: as §1

NTRK2 (TRKB) = molecular target: T12, NTRK2 (TRKB) (Homo sapiens, UniProt Q16620)
T12 construct: purchased ThermoFisher (SelectScreen, Z'-LYTE)
Outline: as §1

MAP2K2 (MEK2) = molecular target: T13, MAP2K2 (MEK2) (Homo sapiens, UniProt P36507); details: 10 µM compound; ATP 100
T13 construct: purchased ThermoFisher (SelectScreen, Z'-LYTE)
Outline: as §1

Row | Molecule | inhibition at 10 µM (STK3 (MST2)) [%] | inhibition at 10 µM (AURKC (Aurora C)) [%] | inhibition at 10 µM (SGK2) [%] | inhibition at 10 µM (SRMS (Srm)) [%] | inhibition at 10 µM (CDK5/p35) [%] | inhibition at 10 µM (PDGFRA (PDGFR alpha)) [%] | inhibition at 10 µM (PRKCN (PKD3)) [%] | inhibition at 10 µM (GSK3B (GSK3 beta)) [%] | inhibition at 10 µM (AMPK A2/B1/G1) [%] | inhibition at 10 µM (DYRK1B) [%] | inhibition at 10 µM (PLK1) [%] | inhibition at 10 µM (NTRK2 (TRKB)) [%] | inhibition at 10 µM (MAP2K2 (MEK2)) [%] | also measured
1 | XMD8-92 [Compound 2, reference compound] |  |  |  |  |  |  |  |  |  |  |  |  |  | STK3 (MST2) % Inhibition (STK3 (MST2); 10 µM compound, ATP Km app): -12%; AURKC (Aurora C) % Inhibition (AURKC (Aurora C); 10 µM compound, ATP Km app): 34%; SGK2 % Inhibition (SGK2; 10 µM compound, ATP Km app): 68%; SRMS (Srm) % Inhibition (SRMS (Srm); 10 µM compound, ATP Km app): 21%; CDK5/p35 % Inhibition (CDK5/p35; 10 µM compound, ATP Km app): 77%; PDGFRA (PDGFR alpha) % Inhibition (PDGFRA (PDGFR alpha); 10 µM compound, ATP Km app): 8%; PRKCN (PKD3) % Inhibition (PRKCN (PKD3); 10 µM compound, ATP Km app): 18%; GSK3B (GSK3 beta) % Inhibition (GSK3B (GSK3 beta); 10 µM compound, ATP Km app): 88%; AMPK A2/B1/G1 % Inhibition (AMPK A2/B1/G1; 10 µM compound, ATP Km app): 58%; DYRK1B % Inhibition (DYRK1B; 10 µM compound, ATP Km app): 12%; PLK1 % Inhibition (PLK1; 10 µM compound, ATP Km app): 10%; NTRK2 (TRKB) % Inhibition (NTRK2 (TRKB); 10 µM compound, ATP Km app): 81%; MAP2K2 (MEK2) % Inhibition (MAP2K2 (MEK2)): 24%
2 | Cc1ncc(-c2nc(Nc3ccc(C(=O)NCCN4CCCCC4)cc3)ncc2F)n1C(C)C [Compound 3] | 79 | 89 | 66 | 20 | 106 | 62 | 87 | 101 | 94 | 100 | 57 | 87 | 94 | 
3 | Cc1cc(Nc2nc(N)nn2C(=O)NC(C)C)ccc1Cl [Compound 5] | 53 | 54 | -20 | 2.26 | 71 | 22 | 11 | 79 | 29 | -4 | 0.455 | 29 | 21 | 
